Patent publication US9850219B1, “Phenothiazine derivatives and methods of use thereof” (Acenda Pharma, Inc., priority 2016, dated 2017)

Columns and labels:
[1] = tested on: H441GL; test: Cytotoxicity, sulforhodamine B (SRB) assay, H441GL; format: cell-based, Human; details: 48 h, NA indicates no activity
Description: (§1) Human non-small cell lung cancer (NSCLC) cell lines (e.g., A549, H441GL and H1299), colon cancer cell lines (e.g., HCT116 and DLD1), breast cancer cell lines (e.g., MCF7 and MDA-MB-231), and pancreatic cancer cell lines (e.g., PANC-1 and SUIT-2) were used in cytotoxicity studies. […] A549 and H441GL are EGFR-wild type adenocarcinoma cell lines. H1299 is an EGFR-wild type large cell carcinoma cell line. HCT116 and DLD1 are metastatic colon cell lines. MCF7 is a hormone-responsive breast cancer cell line. MDA-MB-231 is a triple-negative breast cancer cell line. PANC-1 is a metastatic adenocarcinoma cell line. SUIT-2 is a pancreatic ductal adenocarcinoma cell line.
(§2) All cell lines were grown and maintained in RPMI medium supplemented with 10% fetal bovine serum (FBS, Invitrogen), 2 mM L-glutamine, 100 U/mL penicillin, and 100 μg/mL streptomycin. For cell the culture experiment, stock solution (10 mM) of each test compound was dissolved in dimethyl sulfoxide (DMSO; Sigma).
(§3) Cells were plated in 96-well plates at a density of 2000 cells per well in triplicate. The cells in each well were treated on the third day (to ensure proper plating efficiency and vitality) with different concentrations (0-50 μM) of each test compound for 48 h.
(§4) Cell viability was assessed using the sulforhodamine B (SRB) assay. The medium was discarded, and the adherent cells were fixed by 100 μL of cold 10% trichloroacetic acid (w/v) in each well for 1 h at 4° C. After fixation, cells were stained with 100 μL/well of 0.4% (w/v, in 1% acetic acid) SRB solution for 30 min at room temperature, and then washed 5 times with 1% acetic acid. After air-drying, 100 μL of 10 mM Tris base was added to each well and the absorbance was read at 530 nm. Cytotoxicity is expressed as the percent of cells in drug treated wells relative to number of cells in the solvent only control (set to 100%). Each experiment was performed independently in triplicate and cytotoxicity IC50 value of each test compound was calculated from cytotoxicity data obtained at various concentrations.

[2] = tested on: A549; test: Cytotoxicity, sulforhodamine B (SRB) assay, A549; format: cell-based, Human; details: A549, 48 h, NA indicates no activity
Description: as §1, §2, §3, §4

[3] = tested on: HCT116; test: Cytotoxicity, sulforhodamine B (SRB) assay, HCT116; format: cell-based, human; details: 48 h
Description: (§5) Human non-small cell lung cancer (NSCLC) cell lines (e.g., A549, H441GL and H1299), colon cancer cell lines (e.g., HCT116 and DLD1), breast cancer cell lines (e.g., MCF7 and MDA-MB-231), and pancreatic cancer cell lines (e.g., PANC-1 and SUIT-2) were used in cytotoxicity studies. These NSCLC cell lines have intrinsic resistance to epidermal growth factor receptor (EGFR) inhibitors, e.g., gefitinib. A549 and H441GL are EGFR-wild type adenocarcinoma cell lines. H1299 is an EGFR-wild type large cell carcinoma cell line. HCT116 and DLD1 are metastatic colon cell lines. MCF7 is a hormone-responsive breast cancer cell line. MDA-MB-231 is a triple-negative breast cancer cell line. PANC-1 is a metastatic adenocarcinoma cell line. SUIT-2 is a pancreatic ductal adenocarcinoma cell line.
as §2, §3, §4

[4] = tested on: DLD1; test: Cytotoxicity, sulforhodamine B (SRB) assay, DLD1; format: cell-based, human; details: 48 h
Description: as §5, §2, §3, §4

[5] = tested on: MCF7; test: Cytotoxicity, sulforhodamine B (SRB) assay, MCF7; format: cell-based, human; details: MCF7, Breast, 48 h
Description: as §5, §2, §3, §4

[6] = tested on: MDA-MB-231; test: Cytotoxicity, sulforhodamine B (SRB) assay, MDA-MB-231; format: cell-based, human; details: MDA-MB-231, Breast, 48 h
Description: as §5, §2, §3, §4

[7] = tested on: PANC-1; test: Cytotoxicity, sulforhodamine B (SRB) assay, PANC-1; format: cell-based, human; details: PANC-1, Pancreas, 48 h, NA = no activity
Description: as §5, §2, §3, §4

[8] = tested on: SUIT-2; test: Cytotoxicity, sulforhodamine B (SRB) assay, SUIT-2; format: cell-based, human; details: SUIT-2, Pancreas, 48 h
Description: as §5, §2, §3, §4

[9] = tested on: lung cancer cells; test: Cytotoxicity SRB assay, summary of Table 2; format: cell-based, Human; details: summary in words of Table 2
Description: as §5, §3, §4
NA indicates no activity.

[10] = tested on: H441GL cells; test: Study 2: tumor size in mouse lung cancer model; format: in vivo, NOD/SCID mice; details: for Tumor Size [Fold Change from Week 3 (Mean ± SD, n = 4)] Week 3 / Tumor Size [Fold Change from Week 3 (Mean ± SD, n = 4)] Week 9 / Tumor Size [Fold Change from Week 3 (Mean ± SD, n = 4)] Week 13: Study 2, 0.0127 mmol/kg daily, i.p.; for Tumor Size [Fold Change from Week 3 (Mean ± SD, n = 4)] Week 3: Week 3 (baseline, start of treatment)
Method: (§6) H441GL cells (1×10^6 cells in 100 μL phosphate-buffered saline/injection) were subcutaneously injected into the right flank of NOD/SCID mice (female, 4-6 weeks old). Mice were allowed 2 weeks for tumor growth. On the first day of Week 3 post injection, tumor-bearing mice were randomly divided into control group (DMSO vehicle, intraperitoneal (i.p.) injection) and test compound treatment groups (5 mg/kg/day, 5 days/week, i.p. injection). Over the period of 10 weeks, tumorigenesis in both groups was measured using a caliper on a weekly basis. The change in tumor size was expressed as in fold change from Week 3. In this study body weight of each mouse was also recorded at the end of each study week.
In this study, the daily dose was 0.0127 mmol/kg instead of 5 mg/kg.

[11] = tested on: H441GL cells; test: Study 1: tumor size in mouse lung cancer model; format: in vivo, NOD/SCID mice; details: for Tumor Size [Fold Change from Week 3 (Mean ± SD, n = 4)] Week 3 / Tumor Size [Fold Change from Week 3 (Mean ± SD, n = 4)] Week 9 / Tumor Size [Fold Change from Week 3 (Mean ± SD, n = 4)] Week 13: Study 1, 5 mg/kg/day, 5 days/week, i.p.; for Tumor Size [Fold Change from Week 3 (Mean ± SD, n = 4)] Week 3: Week 3 (baseline, start of treatment)
Method: as §6

[12] = tested on: H1299; test: Cytotoxicity, sulforhodamine B (SRB) assay, H1299; format: cell-based; details: Homo sapiens, NCI-H1299, H1299, 48 h
Description: as §1, §2, §3, §4

[13] = Homo sapiens, HCT-116, HCT116, Colon
[14] = Homo sapiens, DLD-1, DLD1, Colon

| SMILES | IC50 [1] | IC50 [2] | IC50 ([3]; HCT116, Colon) | IC50 ([4]; DLD1, Colon) | IC50 [5] | IC50 [6] | IC50 [7] | IC50 [8] | inhibition of cell proliferation of lung cancer cells [9] | Tumor Size [Fold Change from Week 3 (Mean ± SD, n = 4)] Week 3 [11] | Tumor Size [Fold Change from Week 3 (Mean ± SD, n = 4)] Week 9 [11] | Tumor Size [Fold Change from Week 3 (Mean ± SD, n = 4)] Week 13 [11] | further results |
| --- | --- | --- | --- | --- | --- | --- | --- | --- | --- | --- | --- | --- | --- |
| COCCOCCOCCN1CCN(CCCN2c3ccccc3Sc3ccc(C(F)(F)F)cc32)CC1 [Compound 4-1b] | 10.5 µM | 26.3 µM | 6.5 µM | 8 µM | 13.1 µM | 14.7 µM | 20 µM | 13.3 µM | inhibit cell proliferation | – | – | – | – |
| COCCOCCOCCOCCOCCOCCN1CCN(CCCN2c3ccccc3Sc3ccc(C(F)(F)F)cc32)CC1 [Compound 4-2b] | 6.8 µM | 21.3 µM | 6.5 µM | 13.9 µM | 13.2 µM | 15.8 µM | 10.5 µM | 15.6 µM | inhibit cell proliferation | – | – | – | effect on tumor growth as compared to the vehicle control ([10]; Study 2, 0.0127 mmol/kg daily i.p., by Week 13, in words): largest effect of suppressing tumor growth; Tumor Size [Fold Change from Week 3 (Mean ± SD, n = 4)] Week 3 [10]: 1 ± 0 Fold Change; Tumor Size [Fold Change from Week 3 (Mean ± SD, n = 4)] Week 9 [10]: 9.4 ± 2.6 Fold Change; Tumor Size [Fold Change from Week 3 (Mean ± SD, n = 4)] Week 13 [10]: 23.3 ± 6.2 Fold Change |
| COCCOCCOCCOCCOCCOCCOCCOCCOCCOCCOCCOCCN1CCN(CCCN2c3ccccc3Sc3ccc(C(F)(F)F)cc32)CC1 [Compound 4-3b] | 10.5 µM | 11.5 µM | 8.4 µM | 18 µM | 10.2 µM | 13.8 µM | 15.2 µM | 22 µM | inhibit cell proliferation | – | – | – | Tumor Size [Fold Change from Week 3 (Mean ± SD, n = 4)] Week 3 [10]: 1 ± 0 Fold Change; Tumor Size [Fold Change from Week 3 (Mean ± SD, n = 4)] Week 9 [10]: 11.7 ± 2.1 Fold Change; Tumor Size [Fold Change from Week 3 (Mean ± SD, n = 4)] Week 13 [10]: 30.2 ± 6.2 Fold Change |
| COCCOCCOCCOC(=O)N1CCN(CCCN2c3ccccc3Sc3ccc(C(F)(F)F)cc32)CC1 [Compound 5-1b, NDT-CO—O—[CH2CH2O]3—CH3] | 3.2 µM | 3.8 µM | 10 µM | 35.9 µM | 13.6 µM | 21.6 µM | 18.2 µM | 21.4 µM | inhibit cell proliferation | 1 ± 0 Fold Change | 28.2 ± 7.4 Fold Change | 69.8 ± 18.4 Fold Change | – |
| COCCOCCOCCOCCOCCOCCOC(=O)N1CCN(CCCN2c3ccccc3Sc3ccc(C(F)(F)F)cc32)CC1 [Compound 5-2b, NDT-CO—O—[CH2CH2O]6—CH3] | 2.7 µM | 3.2 µM | 7.3 µM | 15.2 µM | 12 µM | 15.8 µM | 12.5 µM | 10.8 µM | inhibit cell proliferation | 1 ± 0 Fold Change | 23.4 ± 7.5 Fold Change | 51.6 ± 17.6 Fold Change | effect on tumor growth as compared to the vehicle control ([11]; Study 1, 5 mg/kg/day i.p., in words): largest effect of suppressing tumor growth |
| COCCOCCOCCOCCOCCOCCOCCOCCOCCOCCOCCOCCOC(=O)N1CCN(CCCN2c3ccccc3Sc3ccc(C(F)(F)F)cc32)CC1 [Compound 5-3b, NDT-CO—O—[CH2CH2O]12—CH3] | 1.6 µM | 2.7 µM | 7.9 µM | 18.2 µM | 8.3 µM | 9.2 µM | 3.6 µM | 10.8 µM | inhibit cell proliferation | 1 ± 0 Fold Change | 33.4 ± 8.2 Fold Change | 79.4 ± 20.3 Fold Change | – |
| COCC(COCC(COCC(CN1CCN(CCCN2c3ccccc3Sc3ccc(C(F)(F)F)cc32)CC1)OC)OC)OC (stereo not drawn) [Compound 24b, NDT-[CH2CH(OCH3)CH2O]3—CH3] | – | – | – | – | – | – | – | – | inhibit cell proliferation | – | – | – | IC50 ([1]; Homo sapiens): 21 µM; IC50 ([2]; Homo sapiens): 11.8 µM; IC50 [12]: 10.9 µM; IC50 [3, 13]: 5.9 µM; IC50 [4, 14]: 11.8 µM; IC50 ([5]; Homo sapiens): 9.9 µM; IC50 ([6]; Homo sapiens): 11.3 µM; IC50 ([7]; Homo sapiens): 25.8 µM; IC50 ([8]; Homo sapiens): 13.9 µM |
| COCCOCCOCCOCC(COCC(COCC(CN1CCN(CCCN2c3ccccc3Sc3ccc(C(F)(F)F)cc32)CC1)OC)OC)OC (stereo not drawn) [Compound 26-1b, NDT-[CH2CH(OCH3)CH2O]3—[CH2CH2O]n—CH3] | – | – | – | – | – | – | – | – | inhibit cell proliferation | – | – | – | IC50 ([1]; Homo sapiens): 12.1 µM; IC50 ([2]; Homo sapiens): 14.4 µM; IC50 [12]: 20.4 µM; IC50 [3, 13]: 8.5 µM; IC50 [4, 14]: 13.9 µM; IC50 ([5]; Homo sapiens): 10.3 µM; IC50 ([6]; Homo sapiens): 6.4 µM; IC50 ([8]; Homo sapiens): 12.9 µM |
